Laboratory results published in patent US12442035B2, “Compositions and methods for detecting antibiotic responsive mRNA expression signatures and uses thereof” (THE BROAD INSTITUTE, INC., priority 2018, dated 2025).

How the values were obtained:
[1] = system: K. pneumoniae clinical isolates; test: RNA-Seq transcriptional response to antibiotic exposure, GO term enrichment; assay type: cell-based, Klebsiella pneumoniae; details: CLSI breakpoint concentration, 0, 10, 30, 60 minutes
From the text: (§1) Fisher's combined probability test was used to select only those genes whose expression after antibiotic treatment was statistically distinguishable from its expression at any timepoint in the untreated samples. Gene ontology (GO) terms were assigned using blast2GO (version 1.4.4), with hypergeometric testing for enrichment. For each pathogen-antibiotic pair, the fold-change threshold in DESeq2 used to test statistical significance was increased to select 60-100 antibiotic-responsive transcripts with maximal stringency, a number readily accommodated by the NanoString® assay format. […] As with responsive genes, the fold-change threshold was varied in order to select the top 10-20 control transcripts. […] See Supplemental Methods sections below for further details.
(§2) After antibiotic treatment as described in the above Materials and Methods section, cells were pelleted, resuspended in 0.5 mL Trizol reagent (ThermoFisher Scientific), transferred to 1.5 mL screw-cap tubes containing 0.25 mL of 0.1 mm diameter Zirconia/Silica beads (BioSpec Products), and lysed mechanically via bead-beating for 3-5 one-minute cycles on a Minibeadbeater-16 (BioSpec) or one 90-second cycle at 10 m/sec on a FastPrep (MP Bio). After addition of 0.1 mL chloroform, each sample tube was mixed thoroughly by inversion, incubated for 3 minutes at room temperature, and centrifuged at 12,000×g for 15 minutes at 4° C. […]

[2] = system: E. coli clinical isolates; test: Standard broth microdilution MIC; assay type: cell-based, Escherichia coli
From the text: (§3) All strains in this study (Table 7) were obtained from clinical or reference microbiological laboratories, including both local hospitals and MDRO strain collections from the Centers for Disease Control's Antibiotic Resistance Isolate Bank (see e.g., World Wide Web at (www).cdc.gov/ARIsolateBank/) and the New York State Department of Health.

[3] = system: A. baumannii clinical isolates; test: RNA-Seq transcriptional response to antibiotic exposure, GO term enrichment; assay type: cell-based, Acinetobacter baumannii; details: CLSI breakpoint concentration, 0, 10, 30, 60 minutes
From the text: as §1, §2

[4] = system: A. baumannii clinical isolates; test: Standard broth microdilution MIC; assay type: cell-based, Acinetobacter baumannii
From the text: as §3

[5] = system: E. coli clinical isolates; test: RNA-Seq transcriptional response to antibiotic exposure, GO term enrichment; assay type: cell-based, Escherichia coli; details: CLSI breakpoint concentration, 0, 10, 30, 60 minutes
[6] = system: K. pneumoniae clinical isolates; test: Standard broth microdilution MIC; assay type: cell-based, Klebsiella pneumoniae
From the text: as §3

Substance: gentamicin
- Gene ontology enrichment of antibiotic-responsive transcripts [1]: induced the unfolded protein response and quinone binding
- gent MIC ([2]; E. coli strain AR0055): 64 µg/mL
- gent MIC ([2]; E. coli strain AR0061): 32 µg/mL
- gent MIC ([2]; E. coli strain AR0081): 0.5 µg/mL
- gent MIC ([2]; E. coli strain AR0084): 0.5 µg/mL
- gent MIC ([2]; E. coli strain AR0085): 2 µg/mL
- gent MIC ([2]; E. coli strain BAA2469): 64 µg/mL
- gent MIC ([2]; E. coli strain BAC0800005647): 1 µg/mL
- gent MIC ([2]; E. coli strain IDR1300027657): 64 µg/mL
- gent MIC ([2]; E. coli strain IDR1300034680): 1 µg/mL
- gent MIC ([2]; E. coli strain IDR1600047120): 64 µg/mL
- gent MIC ([2]; E. coli strain MGH_57): 0.5 µg/mL
- gent MIC ([2]; E. coli strain RB001 (deriv_S)): 1 µg/mL
- gent MIC ([2]; E. coli strain RB051 (deriv_R)): 256 µg/mL
- gent MIC ([2]; E. coli strain RB057 (deriv_R)): 256 µg/mL
- gent MIC ([2]; E. coli strain RB075 (deriv_S)): 0.5 µg/mL
- gent MIC ([2]; E. coli strain RB765): 64 µg/mL
- gent MIC ([2]; E. coli, printed on the continuation line of strain RB075, above RB076, strain unclear): 1 µg/mL
- Gene ontology enrichment of antibiotic-responsive transcripts [3]: induced the unfolded protein response and quinone binding
- gent MIC ([4]; A. baumannii strain AR0033): 32 µg/mL
- gent MIC ([4]; A. baumannii strain AR0035): 16 µg/mL
- gent MIC ([4]; A. baumannii strain AR0037): >32 µg/mL
- gent MIC ([4]; A. baumannii strain AR0045): >32 µg/mL
- gent MIC ([4]; A. baumannii strain AR0052): 32 µg/mL
- gent MIC ([4]; A. baumannii strain AR0056): >32 µg/mL
- gent MIC ([4]; A. baumannii strain AR0063): 4 µg/mL
- gent MIC ([4]; A. baumannii strain AR0070): >32 µg/mL
- gent MIC ([4]; A. baumannii strain AR0078): >32 µg/mL
- gent MIC ([4]; A. baumannii strain AR0101): 8 µg/mL
- gent MIC ([4]; A. baumannii strain AR0102): >32 µg/mL
- gent MIC ([4]; A. baumannii strain ATCC 17978): ≤0.5 µg/mL
- gent MIC ([4]; A. baumannii strain RB197 (deriv_S)): ≤0.5 µg/mL
- gent MIC ([4]; A. baumannii strain RB198): 32 µg/mL
- gent MIC ([4]; A. baumannii strain RB200 (deriv_R)): >32 µg/mL
- gent MIC ([4]; A. baumannii strain RB201): 1 µg/mL
- gent MIC ([4]; A. baumannii strain RB202): >32 µg/mL
- gent MIC ([4]; A. baumannii strain RB203): 4 µg/mL
- gent MIC ([4]; A. baumannii strain RB204 (deriv_R)): >32 µg/mL
- gent MIC ([4]; A. baumannii strain RB205 (deriv_S)): 2 µg/mL
- gent MIC ([4]; A. baumannii strain RB206): >32 µg/mL
- Gene ontology enrichment of antibiotic-responsive transcripts [5]: induced the unfolded protein response and quinone binding
- gent MIC ([6]; KpGent strain AR0042): 32 µg/mL
- gent MIC ([6]; KpGent strain AR0043): 1 µg/mL
- gent MIC ([6]; KpGent strain AR0076): 32 µg/mL
- gent MIC ([6]; KpGent strain AR0080): 2 µg/mL
- gent MIC ([6]; KpGent strain ATCC 700721): >32 µg/mL
- gent MIC ([6]; KpGent strain BAC0800007138): 0.5 µg/mL
- gent MIC ([6]; KpGent strain BIDMC_2A): 2 µg/mL
- gent MIC ([6]; KpGent strain BIDMC_34): 32 µg/mL
- gent MIC ([6]; KpGent strain BIT-10): 4 µg/mL
- gent MIC ([6]; KpGent strain BWH_15): 4 µg/mL
- gent MIC ([6]; KpGent strain IDR1600031102-01-00): >32 µg/mL
- gent MIC ([6]; KpGent strain IDR1600039511-01-00): 0.5 µg/mL
- gent MIC ([6]; KpGent strain MGH_30): 1 µg/mL
- gent MIC ([6]; KpGent strain MGH_35): >16 µg/mL
- gent MIC ([6]; KpGent strain MGH_63): >16 µg/mL
- gent MIC ([6]; KpGent strain RB012): 32 µg/mL
- gent MIC ([6]; KpGent strain RB040): 0.5 µg/mL
- gent MIC ([6]; KpGent strain RB042): 2 µg/mL
- gent MIC ([6]; KpGent strain RB121): 1 µg/mL
- gent MIC ([6]; KpGent strain RB122): 128 µg/mL
- gent MIC ([6]; KpGent strain UCI_7): 0.5 µg/mL
- gent MIC ([6]; KpGent strain UCI_13): 0.5 µg/mL
- gent MIC ([6]; KpGent strain UCI_37): 16 µg/mL
- gent MIC ([6]; KpGent strain UCI_63): 4 µg/mL
- gent MIC ([6]; KpGent strain UCI_67): 8 µg/mL
